Test results published in ChEMBL document CHEMBL1137908, “Synthesis and antibacterial activity of novel 6-fluoro-1-[(1R,2S)-2-fluorocyclopropan-1-yl]-4-oxoquinoline-3-carboxylic acids bearing cyclopropane-fused 2-amino-8-azabicyclo[4.3.0]nonan-8-yl substituents at the C-7 position” (Bioorg Med Chem Lett, 2004).
≈ marks a conversion by molar mass, not a printed value.

What was measured:
Staphylococcus aureus [1] = experiment: Antibacterial activity against Staphylococcus aureus FDA 209P was determined; format: functional
Klebsiella pneumoniae = experiment: Antibacterial activity against Klebsiella pneumoniae type II was determined; format: functional
Enterococcus faecalis = experiment: Antibacterial activity against Enterococcus faecalis ATCC 19433 was determined; format: functional
Streptococcus pyogenes = experiment: Antibacterial activity against Streptococcus pyogenes G-36 was determined; format: functional
Streptococcus pneumoniae = experiment: Antibacterial activity against Penicillin-resistant Streptococcus pneumoniae (PRSP) J-24 was determined; format: functional
[2] = tested on: Staphylococcus epidermidis; experiment: Antibacterial activity against Staphylococcus epidermidis 56500 was determined; format: functional
Escherichia coli = experiment: Antibacterial activity against Escherichia coli NIHJ was determined; format: functional
Streptococcus mitis = experiment: Antibacterial activity against Streptococcus mitis IID685 was determined; format: functional
Staphylococcus aureus [3] = experiment: Antibacterial activity against methicillin-resistant Staphylococcus aureus (MRSA) 870307 was determined; format: functional
[4] = target: T1, DNA topoisomerase 4 subunit A (Staphylococcus aureus subsp. aureus Mu50, UniProt Q931S2); experiment: Inhibitory concentration against Staphylococcus aureus DNA topoisomerase IV
T1 sequence (Q931S2 whole entry): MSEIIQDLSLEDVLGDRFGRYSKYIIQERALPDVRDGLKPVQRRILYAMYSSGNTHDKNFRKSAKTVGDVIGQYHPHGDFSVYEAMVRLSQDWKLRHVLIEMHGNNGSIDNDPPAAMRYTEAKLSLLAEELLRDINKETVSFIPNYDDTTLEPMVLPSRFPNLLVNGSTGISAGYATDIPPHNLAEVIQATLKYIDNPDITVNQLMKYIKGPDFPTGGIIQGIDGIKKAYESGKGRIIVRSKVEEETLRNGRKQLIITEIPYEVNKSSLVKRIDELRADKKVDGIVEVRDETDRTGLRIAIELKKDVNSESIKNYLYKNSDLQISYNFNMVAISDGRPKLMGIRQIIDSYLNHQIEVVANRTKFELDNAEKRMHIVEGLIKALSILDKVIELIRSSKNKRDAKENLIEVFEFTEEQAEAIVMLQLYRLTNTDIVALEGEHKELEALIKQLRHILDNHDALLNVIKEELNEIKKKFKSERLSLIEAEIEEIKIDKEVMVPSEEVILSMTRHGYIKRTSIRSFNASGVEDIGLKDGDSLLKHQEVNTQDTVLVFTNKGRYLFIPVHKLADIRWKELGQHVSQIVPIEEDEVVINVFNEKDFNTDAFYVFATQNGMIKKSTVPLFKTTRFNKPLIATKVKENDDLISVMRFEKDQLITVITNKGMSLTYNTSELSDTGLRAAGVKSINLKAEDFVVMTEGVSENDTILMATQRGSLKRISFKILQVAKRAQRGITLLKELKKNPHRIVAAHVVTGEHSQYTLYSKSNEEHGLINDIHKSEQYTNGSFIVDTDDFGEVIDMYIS

DNA topoisomerase II = DNA topoisomerase II (Homo sapiens, UniProt P11388+Q02880); experiment: Inhibitory concentration against human DNA topoisomerase II; format: protein assay
[5] = Ratio of binding to human DNA topoisomerase II and Staphylococcus aureus DNA topoisomerase IV
[6] = Staphylococcus aureus, read-out: MIC
[7] = Escherichia coli, read-out: MIC
[8] = Klebsiella pneumoniae, read-out: MIC
[9] = Enterococcus faecalis, ATCC 19433, read-out: MIC
[10] = Streptococcus pyogenes, read-out: MIC
[11] = Streptococcus pneumoniae, read-out: MIC
[12] = Staphylococcus epidermidis, read-out: MIC
[13] = Streptococcus mitis, read-out: MIC

| SMILES | MIC (Klebsiella pneumoniae) [µg/mL] | MIC (Enterococcus faecalis) [µg/mL] | MIC (Streptococcus pyogenes) | MIC (Streptococcus pneumoniae) | MIC [2] | MIC (Streptococcus mitis) | MIC (Staphylococcus aureus [3]) [µg/mL] | MIC (Staphylococcus aureus [1]; [6]) [µg/mL] | MIC (Escherichia coli; [7]) [µg/mL] | MIC (Klebsiella pneumoniae; [8]) [µg/mL] | MIC (Enterococcus faecalis; [9]) [µg/mL] | MIC (Streptococcus pyogenes; [10]) [µg/mL] | MIC (Streptococcus pneumoniae; [11]) [µg/mL] | MIC (Streptococcus mitis; [13]) [µg/mL] | other results |
| --- | --- | --- | --- | --- | --- | --- | --- | --- | --- | --- | --- | --- | --- | --- | --- |
| Nc1c(F)c(N2C[C@H]3C[C@@H]4C[C@@H]4[C@@H](N)[C@H]3C2)c(F)c2c1c(=O)c(C(=O)O)cn2[C@@H]1C[C@@H]1F (stereo in doubt; 25 (-)) | 0.1 (≈ 0.223 µM) | 0.2 (≈ 0.446 µM) | 0.39 µg/mL (≈ 0.87 µM) | 0.1 µg/mL (≈ 0.223 µM) | 0.05 µg/mL (≈ 0.111 µM) | 0.1 µg/mL (≈ 0.223 µM) | 1.56 (≈ 3.48 µM) |  |  |  |  |  |  |  | MIC (Staphylococcus aureus [1]): 0.006 µg/mL (≈ 0.0134 µM); MIC (Escherichia coli): 0.01 µg/mL (≈ 0.0223 µM) |
| Nc1c(F)c(N2C[C@H]3CC[C@H]4C[C@@]4(N)[C@H]3C2)c(F)c2c1c(=O)c(C(=O)O)cn2[C@@H]1C[C@@H]1F (stereo in doubt; 13 (+)) [listing 1 of 2 here] | 0.01 (≈ 0.0223 µM) | 0.02 (≈ 0.0446 µM) | <=0.003 ug ml-1 | <=0.003 ug ml-1 | <=0.003 ug ml-1 | <=0.003 ug ml-1 | 0.006 (≈ 0.0134 µM) | ≤ 0.003 | ≤ 0.003 |  |  |  |  |  | IC50 [4]: 669 nM; IC50 (DNA topoisomerase II): 21.89 µg/mL (≈ 48.8 µM) |
| Nc1c(F)c(N2C[C@H]3CCC[C@@H](N)[C@H]3C2)c(F)c2c1c(=O)c(C(=O)O)cn2[C@@H]1C[C@@H]1F (stereo in doubt; 28 (+)) [listing 1 of 2 here] |  |  |  |  |  |  |  |  |  |  |  |  |  |  | Selectivity [5]: 38.3 |
| CC(=O)NC[C@H]1CN(c2ccc(N3CCOCC3)c(F)c2)C(=O)O1 [LINEZOLID] |  |  |  |  |  |  |  | 0.78 (≈ 2.31 µM) | 6.25 (≈ 18.5 µM) | > 6.25 | 3.13 (≈ 9.28 µM) | 3.13 (≈ 9.28 µM) | 0.78 (≈ 2.31 µM) | 1.56 (≈ 4.62 µM) | MIC [2, 12]: 1.56 µg/mL (≈ 4.62 µM); MIC (Staphylococcus aureus [3]; [6]): 1.56 µg/mL (≈ 4.62 µM) |
| Nc1c(F)c(N2C[C@H]3C[C@@H]4C[C@@H]4[C@@H](N)[C@H]3C2)c(F)c2c1c(=O)c(C(=O)O)cn2[C@@H]1C[C@@H]1F (stereo in doubt; 24 (+)) |  |  |  |  |  |  |  |  |  |  |  |  |  |  | Selectivity [5]: 151 |
| Nc1c(F)c(N2C[C@H]3C[C@@H]4C[C@@H]4[C@H](N)[C@H]3C2)c(F)c2c1c(=O)c(C(=O)O)cn2[C@@H]1C[C@@H]1F (stereo in doubt; 27 (-)) |  |  | 0.01 µg/mL (≈ 0.0223 µM) | 0.006 µg/mL (≈ 0.0134 µM) | 0.006 µg/mL (≈ 0.0134 µM) | 0.006 µg/mL (≈ 0.0134 µM) | 0.2 (≈ 0.446 µM) |  |  |  |  |  |  |  |  |
| Nc1c(F)c(N2C[C@H]3CCC[C@@H](N)[C@H]3C2)c(F)c2c1c(=O)c(C(=O)O)cn2[C@@H]1C[C@@H]1F (stereo in doubt; 29 (-)) | 0.39 (≈ 0.894 µM) | 0.78 (≈ 1.79 µM) | 0.1 µg/mL (≈ 0.229 µM) | 0.1 µg/mL (≈ 0.229 µM) | 0.2 µg/mL (≈ 0.458 µM) | 0.1 µg/mL (≈ 0.229 µM) | 0.78 (≈ 1.79 µM) |  |  |  |  |  |  |  | MIC (Staphylococcus aureus [1]): 0.02 µg/mL (≈ 0.0458 µM); MIC (Escherichia coli): 0.1 µg/mL (≈ 0.229 µM) |
| Nc1c(F)c(N2C[C@H]3C[C@@H]4C[C@@H]4[C@H](N)[C@H]3C2)c(F)c2c1c(=O)c(C(=O)O)cn2[C@@H]1C[C@@H]1F (stereo in doubt; 26 (+)) [listing 1 of 2 here] |  |  |  |  |  |  | 0.02 (≈ 0.0446 µM) | ≤ 0.003 | ≤ 0.003 | 0.01 (≈ 0.0223 µM) | 0.02 (≈ 0.0446 µM) | 0.006 (≈ 0.0134 µM) | ≤ 0.003 | ≤ 0.003 | IC50 [4]: 847 nM; MIC [2, 12]: ≤ 0.003 µg/mL; IC50 (DNA topoisomerase II): 6.65 µg/mL (≈ 14.8 µM) |
| CN[C@H](CC(C)C)C(=O)N[C@H]1C(=O)N[C@@H](CC(N)=O)C(=O)N[C@H]2C(=O)N[C@H]3C(=O)N[C@H](C(=O)N[C@H](C(=O)O)c4cc(O)cc(O)c4-c4cc3ccc4O)[C@H](O)c3ccc(c(Cl)c3)Oc3cc2cc(c3O[C@@H]2O[C@H](CO)[C@@H](O)[C@H](O)[C@H]2O[C@H]2C[C@](C)(N)[C@H](O)[C@H](C)O2)Oc2ccc(cc2Cl)[C@H]1O [VANCOMYCIN] |  |  |  |  |  |  |  | 0.2 (≈ 0.138 µM) | > 6.25 | > 6.25 | 0.39 (≈ 0.269 µM) | 0.39 (≈ 0.269 µM) | 0.2 (≈ 0.138 µM) | 0.39 (≈ 0.269 µM) | MIC (Staphylococcus aureus [3]; [6]): 0.39 µg/mL (≈ 0.269 µM) |
| Nc1c(F)c(N2C[C@H]3CC[C@H]4C[C@@]4(N)[C@H]3C2)c(F)c2c1c(=O)c(C(=O)O)cn2[C@@H]1C[C@@H]1F (stereo in doubt; 14 (-)) | 0.05 (≈ 0.111 µM) | 0.2 (≈ 0.446 µM) | 0.05 µg/mL (≈ 0.111 µM) | 0.02 µg/mL (≈ 0.0446 µM) | 0.02 µg/mL (≈ 0.0446 µM) | 0.02 µg/mL (≈ 0.0446 µM) | 0.2 (≈ 0.446 µM) |  |  |  |  |  |  |  | MIC (Escherichia coli): 0.006 µg/mL (≈ 0.0134 µM) |
| Nc1c(F)c(N2C[C@H]3CCC[C@@H](N)[C@H]3C2)c(F)c2c1c(=O)c(C(=O)O)cn2[C@@H]1C[C@@H]1F (stereo in doubt; 28 (+)) [listing 2 of 2 here] | 0.01 (≈ 0.0229 µM) | 0.02 (≈ 0.0458 µM) | <=0.003 ug ml-1 | <=0.003 ug ml-1 | <=0.003 ug ml-1 | <=0.003 ug ml-1 | 0.006 (≈ 0.0137 µM) |  |  |  |  |  |  |  | MIC (Staphylococcus aureus [1]): <=0.003 ug ml-1; IC50 [4]: 412 nM; MIC (Escherichia coli): <=0.003 ug ml-1; IC50 (DNA topoisomerase II): 7 µg/mL (≈ 16 µM) |
| COc1c(N2C[C@@H]3CCCN[C@@H]3C2)c(F)cc2c(=O)c(C(=O)O)cn(C3CC3)c12 [MOXIFLOXACIN] |  |  |  |  |  |  |  | 0.02 (≈ 0.0498 µM) | 0.006 (≈ 0.0149 µM) | 0.05 (≈ 0.125 µM) | 0.2 (≈ 0.498 µM) | 0.2 (≈ 0.498 µM) | 0.02 (≈ 0.0498 µM) | 0.1 (≈ 0.249 µM) | MIC [2, 12]: 0.1 µg/mL (≈ 0.249 µM); MIC (Staphylococcus aureus [3]; [6]): 0.78 µg/mL (≈ 1.94 µM) |
| Nc1c(F)c(N2C[C@H]3C[C@@H]4C[C@@H]4[C@H](N)[C@H]3C2)c(F)c2c1c(=O)c(C(=O)O)cn2[C@@H]1C[C@@H]1F (stereo in doubt; 26 (+)) [listing 2 of 2 here] |  |  |  |  |  |  |  |  |  |  |  |  |  |  | Selectivity [5]: 17.3 |
| C[C@H]1COc2c(N3CCN(C)CC3)c(F)cc3c(=O)c(C(=O)O)cn1c23.C[C@H]1COc2c(N3CCN(C)CC3)c(F)cc3c(=O)c(C(=O)O)cn1c23.O [LEVOFLOXACIN] |  |  |  |  |  |  |  | 0.2 |  | 0.05 | 0.78 | 0.78 | 0.78 | 0.39 | MIC [2, 12]: 0.39 µg/mL; MIC (Staphylococcus aureus [3]; [6]): > 6.25 µg/mL |
| Nc1c(F)c(N2C[C@H]3CC[C@H]4C[C@@]4(N)[C@H]3C2)c(F)c2c1c(=O)c(C(=O)O)cn2[C@@H]1C[C@@H]1F (stereo in doubt; 13 (+)) [listing 2 of 2 here] |  |  |  |  |  |  |  |  |  |  |  |  |  |  | Selectivity [5]: 71.3 |
